Assay results taken from US20100267561A1, “HERBICIDAL PYRIDAZINONE DERIVATIVES” (priority 2007, published 2010).

What was measured:
Experiment in all cases: Test E pre-/postemergence plant response
Type in all cases: in vivo
[1] = system: dallisgrass (Paspalum dilatatum); conditions: scale 0 to 100
Method in brief: (§1)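 Formulated in a non-phytotoxic solvent mixture containing surfactant, compound was applied to soil at planting or sprayed on emerged plants at the 1- to 4-leaf stage. Visual comparison with controls followed 14 to 21 days in the greenhouse; 0 = no effect, 100 = complete control.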

[2] = system: purple nutsedge (Cyperus rotundus); conditions: scale 0 to 100
Method in brief: as §1

[3] = system: common chickweed (Stellaria media); conditions: Postemergence, scale 0 to 100
Method in brief: as §1

[4] = system: southern (S.) sandbur (Cenchrus echinatus); conditions: scale 0 to 100
Method in brief: as §1

[5] = system: goosegrass (Eleusine indica); conditions: scale 0 to 100
Method in brief: as §1

[6] = system: common purslane (Portulaca oleracea); conditions: scale 0 to 100
Method in brief: as §1

[7] = system: large crabgrass (Digitaria sanguinalis); conditions: scale 0 to 100
Method in brief: as §1

[8] = system: johnsongrass (Sorghum halepense); conditions: scale 0 to 100
Method in brief: as §1

[9] = system: green foxtail (Setaria viridis); conditions: scale 0 to 100
Method in brief: as §1

[10] = system: Italian ryegrass (Lolium multiflorum); conditions: scale 0 to 100
Method in brief: as §1

[11] = system: bermudagrass (Cynodon dactylon); conditions: scale 0 to 100
Method in brief: as §1

[12] = system: black mustard (Brassica nigra); conditions: scale 0 to 100
Method in brief: as §1

COC(=O)Oc1cnn(C)c(=O)c1-n1nc(-c2ccc(Cl)cc2)cc1C [Compound 33]
Plant response rating, Dallisgrass ([1]; 8 g ai/ha, Preemergence): 25
Plant response rating, Dallisgrass ([1]; 16 g ai/ha, Preemergence): 50
Plant response rating, Dallisgrass ([1]; 31 g ai/ha, Preemergence): 80
Plant response rating, Dallisgrass ([1]; 62 g ai/ha, Preemergence): 100
Plant response rating, Dallisgrass ([1]; Postemergence, 8 g ai/ha): 35
Plant response rating, Dallisgrass ([1]; Postemergence, 16 g ai/ha): 35
Plant response rating, Dallisgrass ([1]; Postemergence, 31 g ai/ha): 65
Plant response rating, Dallisgrass ([1]; Postemergence, 62 g ai/ha): 65
Plant response rating, Nutsedge, Purple ([2]; 16 g ai/ha, Preemergence): 0
Plant response rating, Nutsedge, Purple ([2]; 31 g ai/ha, Preemergence): 0
Plant response rating, Nutsedge, Purple ([2]; 62 g ai/ha, Preemergence): 0
Plant response rating, Nutsedge, Purple ([2]; Postemergence, 8 g ai/ha): 0
Plant response rating, Nutsedge, Purple ([2]; Postemergence, 16 g ai/ha): 0
Plant response rating, Nutsedge, Purple ([2]; Postemergence, 31 g ai/ha): 0
Plant response rating, Nutsedge, Purple ([2]; Postemergence, 62 g ai/ha): 0
Plant response rating, Chickweed ([3]; 8 g ai/ha): 0
Plant response rating, Chickweed ([3]; 16 g ai/ha): 0
Plant response rating, Chickweed ([3]; 31 g ai/ha): 0
Plant response rating, Sandbur, S. ([4]; 16 g ai/ha, Preemergence): 90
Plant response rating, Sandbur, S. ([4]; 31 g ai/ha, Preemergence): 90
Plant response rating, Sandbur, S. ([4]; 62 g ai/ha, Preemergence): 100
Plant response rating, Sandbur, S. ([4]; Postemergence, 8 g ai/ha): 65
Plant response rating, Sandbur, S. ([4]; Postemergence, 16 g ai/ha): 75
Plant response rating, Sandbur, S. ([4]; Postemergence, 31 g ai/ha): 80
Plant response rating, Sandbur, S. ([4]; Postemergence, 62 g ai/ha): 90
Plant response rating, Goosegrass ([5]; 8 g ai/ha, Preemergence): 75
Plant response rating, Goosegrass ([5]; 16 g ai/ha, Preemergence): 98
Plant response rating, Goosegrass ([5]; 31 g ai/ha, Preemergence): 98
Plant response rating, Goosegrass ([5]; 62 g ai/ha, Preemergence): 100
Plant response rating, Goosegrass ([5]; Postemergence, 8 g ai/ha): 35
Plant response rating, Goosegrass ([5]; Postemergence, 16 g ai/ha): 35
Plant response rating, Goosegrass ([5]; Postemergence, 31 g ai/ha): 75
Plant response rating, Goosegrass ([5]; Postemergence, 62 g ai/ha): 75
Plant response rating, Purslane ([6]; 16 g ai/ha, Preemergence): 0
Plant response rating, Purslane ([6]; 31 g ai/ha, Preemergence): 0
Plant response rating, Purslane ([6]; 62 g ai/ha, Preemergence): 0
Plant response rating, Purslane ([6]; Postemergence, 8 g ai/ha): 0
Plant response rating, Purslane ([6]; Postemergence, 16 g ai/ha): 0
Plant response rating, Purslane ([6]; Postemergence, 31 g ai/ha): 0
Plant response rating, Purslane ([6]; Postemergence, 62 g ai/ha): 0
Plant response rating, Crabgrass, Large ([7]; 8 g ai/ha, Preemergence): 40
Plant response rating, Crabgrass, Large ([7]; 16 g ai/ha, Preemergence): 75
Plant response rating, Crabgrass, Large ([7]; 31 g ai/ha, Preemergence): 100
Plant response rating, Crabgrass, Large ([7]; 62 g ai/ha, Preemergence): 100
Plant response rating, Crabgrass, Large ([7]; Postemergence, 8 g ai/ha): 70
Plant response rating, Crabgrass, Large ([7]; Postemergence, 16 g ai/ha): 75
Plant response rating, Crabgrass, Large ([7]; Postemergence, 31 g ai/ha): 90
Plant response rating, Crabgrass, Large ([7]; Postemergence, 62 g ai/ha): 95
Plant response rating, Johnsongrass ([8]; 16 g ai/ha, Preemergence): 75
Plant response rating, Johnsongrass ([8]; 31 g ai/ha, Preemergence): 85
Plant response rating, Johnsongrass ([8]; 62 g ai/ha, Preemergence): 98
Plant response rating, Johnsongrass ([8]; Postemergence, 8 g ai/ha): 50
Plant response rating, Johnsongrass ([8]; Postemergence, 16 g ai/ha): 75
Plant response rating, Johnsongrass ([8]; Postemergence, 31 g ai/ha): 98
Plant response rating, Johnsongrass ([8]; Postemergence, 62 g ai/ha): 98
Plant response rating, Foxtail, Green ([9]; 8 g ai/ha, Preemergence): 40
Plant response rating, Foxtail, Green ([9]; 16 g ai/ha, Preemergence): 65
Plant response rating, Foxtail, Green ([9]; 31 g ai/ha, Preemergence): 100
Plant response rating, Foxtail, Green ([9]; 62 g ai/ha, Preemergence): 100
Plant response rating, Foxtail, Green ([9]; Postemergence, 8 g ai/ha): 60
Plant response rating, Foxtail, Green ([9]; Postemergence, 16 g ai/ha): 65
Plant response rating, Foxtail, Green ([9]; Postemergence, 31 g ai/ha): 75
Plant response rating, Foxtail, Green ([9]; Postemergence, 62 g ai/ha): 95
Plant response rating, Ryegrass, Italian ([10]; 16 g ai/ha, Preemergence): 98
Plant response rating, Ryegrass, Italian ([10]; 31 g ai/ha, Preemergence): 100
Plant response rating, Ryegrass, Italian ([10]; 62 g ai/ha, Preemergence): 100
Plant response rating, Ryegrass, Italian ([10]; Postemergence, 8 g ai/ha): 35
Plant response rating, Ryegrass, Italian ([10]; Postemergence, 16 g ai/ha): 75
Plant response rating, Ryegrass, Italian ([10]; Postemergence, 31 g ai/ha): 90
Plant response rating, Ryegrass, Italian ([10]; Postemergence, 62 g ai/ha): 95
Plant response rating, Bermudagrass ([11]; 8 g ai/ha, Preemergence): 90
Plant response rating, Bermudagrass ([11]; 16 g ai/ha, Preemergence): 90
Plant response rating, Bermudagrass ([11]; 31 g ai/ha, Preemergence): 98
Plant response rating, Bermudagrass ([11]; 62 g ai/ha, Preemergence): 100
Plant response rating, Bermudagrass ([11]; Postemergence, 8 g ai/ha): 70
Plant response rating, Bermudagrass ([11]; Postemergence, 16 g ai/ha): 80
Plant response rating, Bermudagrass ([11]; Postemergence, 31 g ai/ha): 90
Plant response rating, Bermudagrass ([11]; Postemergence, 62 g ai/ha): 95
Plant response rating, Mustard, Black ([12]; 8 g ai/ha, Preemergence): 0
Plant response rating, Mustard, Black ([12]; 16 g ai/ha, Preemergence): 0
Plant response rating, Mustard, Black ([12]; 31 g ai/ha, Preemergence): 0
Plant response rating, Mustard, Black ([12]; 62 g ai/ha, Preemergence): 0
Plant response rating, Mustard, Black ([12]; Postemergence, 8 g ai/ha): 0
Plant response rating, Mustard, Black ([12]; Postemergence, 16 g ai/ha): 0
Plant response rating, Mustard, Black ([12]; Postemergence, 31 g ai/ha): 0
Plant response rating, Mustard, Black ([12]; Postemergence, 62 g ai/ha): 0
